Tests used:
[1] = test system: HEK-293T-RGS2-FBXO44 NanoBit cells; test: Cell viability assay (GF-AFC fluorescence) multiplexed with NanoBit; format: cell-based, Human; conditions: 100 μM; for Viability (% of Control): 16–18 hours, fresh powder
Method: The cells were plated in DMEM without phenol red (Gibco, #21063), 0.1% BSA in a white, tissue culture-treated 384-well plate (Perkin Elmer) at 15,000 cells/well, unless indicated otherwise, and allowed to attach. The plate was centrifuged at 212 × g for 30 seconds to aid in even cell adherence. Compound treatments were initiated 4–5 hours after plating. Following indicated treatment times, media was removed from the plate using BioTek ELx405 plate washer. Additionally, 10 μL of Hank’s Balanced Salt solution (HBSS) with 0.1% BSA was added to each well, followed by 5 μL of glycyl-phenylalanyl-aminofluorocoumarin (GF-AFC; MP Biomedicals) diluted 1:1000 in 100 mM HEPES. Plates were then centrifuged at 212 × g for 30 seconds and then incubated at 37 °C for 30 minutes. Fluorescence was detected on a Synergy Neo2 multimode plate reader (BioTek/Agilent).
Our primary assay using the HEK-293T RGS2-FBXO44 NanoBit cell line was extensively optimized to ensure maximum quality for screening. Coupling a fluorescent cell viability assay with our screen would allow us to rule out cytotoxic compounds while also hopefully reducing outliers from pipetting errors while plating cells. Thus, we multiplexed our NanoBit assay with cell viability using a cell-permeable fluorogenic protease substrate (glycyl-phenylalanyl-aminofluorocoumarin; GF-AFC; [Niles et al, 2007]), which can be combined with a luminescent readout without interfering with the luciferase signal. We previously utilized a similar multiplexing strategy in several screens ([Sjögren et al, 2012]; [Raveh et al, 2014]; [Sjögren et al, 2015]). We assessed and optimized treatment conditions (time, temperature, and reagent volume), cell density, buffer composition, and DMSO tolerance. In addition to the supplied proprietary LCS buffer (Promega), we also tested DMEM, 0.1% BSA, PBS, and HBSS (Supplemental Fig. 1A–C). […] The luminescent signal was stable up to 45 minutes after reagent addition, and we chose to run subsequent assays using 20 minutes of incubation time (Supplemental Fig. 1E). We also observed no effect on either viability or luminescence signal at DMSO concentrations <1% (Data not shown).
(§1) HEK-293T-RGS2-FBXO44 NanoBit cells were treated for 16–18 hours with compound at 100 μM. This relatively high concentration was chosen because of the challenging nature of our assay (intracellular PPI inhibition). Parental HEK-293T cells were used as a negative control. […] Based on these criteria, 97 compounds were identified as hits from our primary screen (6.1% initial hit rate). To confirm hits, the same assay was repeated in triplicate, which delivered 34 compounds that reached the threshold for inhibition in at least 2 replicates with <25% cell toxicity (Fig. 2C; Supplemental Table 1), thus rendering a final hit rate of 2.1%.

RGS2-FBXO44 interaction = biological target: T1, RGS2-FBXO44 interaction (Homo sapiens, UniProt P41220); test: RGS2-FBXO44 NanoBit assay (HEK-293T RGS2-SmBiT/LgBiT-FBXO44 stable clone #6); format: cell-based; conditions: for % Inhibition @ 100 μM of RGS2-FBXO44 NanoBit signal: 16–18 hours, fresh powder, luminescence normalized to viability, vs nontreated cells; for IC50: concentrations 500 to 0.01 μM, RLU normalized to viability (RFU), read-out: IC50 (μM), inhibition of RGS2-FBXO44 NanoBit signal
T1 construct: expressed in transfected cells
T1 sequence (P41220 1-211): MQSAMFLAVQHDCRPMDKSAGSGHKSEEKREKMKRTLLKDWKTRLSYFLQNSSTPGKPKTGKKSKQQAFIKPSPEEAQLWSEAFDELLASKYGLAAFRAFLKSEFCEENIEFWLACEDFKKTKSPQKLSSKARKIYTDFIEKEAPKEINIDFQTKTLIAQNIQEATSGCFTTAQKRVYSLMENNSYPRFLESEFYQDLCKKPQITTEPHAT
Method: Nano-Glo Live Cell Substrate (LCS) was diluted 1:50 in HBSS to form a 2× stock, and then, 15 μL was added to each well. Plates were shaken on an orbital shaker at 500 rpm for 5 minutes protected from light and then spun down at 1000 rpm for 30 seconds. Plates were incubated at room temperature for 20 minutes, and then, luminescence was detected on a Synergy Neo2 multimode plate reader.
as §1
Fresh powders of 20 compounds were purchased and reassayed for their ability to inhibit the RGS2-FBXO44 NanoBit signal, using the same assay paradigm as in the primary screen (Fig. 3; Table 1). […] Nevertheless, all compounds were confirmed to inhibit the RGS2-FBXO44 NanoBit signal at this high concentration.
We next assessed the concentration-dependent effect of our 20 hits. Compounds were assayed at concentrations ranging from 500 to 0.01 μM. NanoBit luminescence (relative luminescence units) was normalized to viability (RFU) and presented as a percentage of untreated cells.

RGS2 protein levels = test: PathHunter ProLabel assay of RGS2 protein levels in HEK-293T-RGS2-PL cells; format: cell-based, Human; conditions: 100 μM compound overnight (16–18 hours)
Method: The PathHunter ProLabel assay was run as described previously ([Sjögren et al, 2012]; [Raveh et al, 2014]; [Sjögren et al, 2015]). Briefly, HEK-293T-RGS2-PL cells were plated at 10,000 cells per well in a white, tissue culture-treated 384-well plate (Perkin Elmer) in DMEM without phenol red (#21063; Gibco) and 0.1% BSA. The cells were allowed to attach for 4 hours, followed by treatment with DMSO, 10 μM MG-132, or 100 μM of compounds. Prior to the detection of RGS2 protein levels by the ProLabel assay, a fluorescent viability assay was performed in the same well, as described above. PathHunter ProLabel reagents (DiscoveRx) were prepared according to the manufacturer’s directions and added to the plate, followed by incubation at room temperature for 1 hour. Luminescence corresponding to RGS2-PL protein levels was detected using a Synergy Neo2 multimode plate reader.
Compounds that inhibit the interaction between RGS2 and FBXO44 would protect RGS2 from proteasomal degradation and result in increased RGS2 protein levels. We therefore next assayed our 20 hits for their ability to increase RGS2 protein levels. We first performed western blot analysis of HEK-293T cells transfected with RGS2-HA and FLAG-FBXO44 and treated overnight (16–18 hours) with 100 μM compound, using proteasome inhibitor MG-132 as a positive control (10 μM). […] Although somewhat disappointing, given the limited sensitivity of western blot, we opted to also test the compounds using an alternate assay paradigm. Specifically, we used the PathHunter ProLabel assay (DiscoveRx), an enzyme complementation assay in which a protein of interest is tagged with a 4 kDa part of β-galactosidase (ProLabel; PL). The chemiluminescent signal in the assay correlates with relative levels of the PL-tagged target protein. We previously developed a stable HEK-293T-RGS2-PL cell line that was used in several high-throughput screening campaigns ([Sjögren et al, 2012]; [Raveh et al, 2014]; [Sjögren et al, 2015]). The PathHunter ProLabel assay offers a more quantitative measurement of protein levels, with a larger dynamic range than a western blot. We treated HEK-293T-RGS2-PL cells overnight (16–18 hours) with 100 μM compound and used 10 μM MG-132 as a positive control.
As a further validation of the action of compound 10, we assessed whether the ability to increase RGS2 protein levels was dependent on FBXO44 using the PathHunter ProLabel assay. HEK-293T-RGS2-PL cells transfected with either nontargeting (NT) or FBXO44-targeting siRNA were treated overnight (16–18 hours) with vehicle or compound 10 (100 μM). […] Thus, compound 10 increases RGS2 protein levels through a mechanism that is dependent on FBXO44.

SMILES | Viability (% of Control) [1] | % Inhibition @ 100 μM of RGS2-FBXO44 NanoBit signal (RGS2-FBXO44 interaction) | IC50 (RGS2-FBXO44 interaction) [µM] | RGS2 protein levels (PathHunter ProLabel) (RGS2 protein levels) | Cell toxicity (in words) [1]
CCOc1ccc(C(=O)NCc2ccnc(N3CCCCC3)n2)cc1 [Compound 4] | 89.5 % of Control | 47.2∗∗∗∗ % | 38.2 | – | –
Cc1cc(C)c(C)c(Cn2c(CCNC(=O)CCC(C)O)nc3ccccc32)c1C (centres unmarked) [Compound 15] | 68.5∗∗∗∗ % of Control | 50.2∗∗∗∗ % | 20.3 | – | –
CCCOc1cc(S(=O)(=O)NCC2CCCO2)ccc1Cl (centres unmarked) [Compound 19] | 85.8∗∗ % of Control | 74.8∗∗∗∗ % | 39.6 | – | –
COC1(CNC(=O)CCc2ccccc2)C2CC3CC(C2)CC1C3 (centres unmarked) [Compound 14] | 93.9 % of Control | 70.7∗∗∗∗ % | 67.4 | – | –
CSc1ccccc1C(=O)NCc1cc(C2CC2)n(C2CCCC2)n1 [Compound 17] | 69.2∗∗∗∗ % of Control | 69.0∗∗∗∗ % | 88.1 | – | –
Cc1cc(C)c(C)c(S(=O)(=O)N2CCCC2)c1C [Compound 7] | 91.7 % of Control | 56.5∗∗∗∗ % | 42.1 | – | –
CCc1nc(C)cn1S(=O)(=O)c1cc(OC)c(C)cc1C [Compound 20] | 44.4∗∗∗∗ % of Control | 67.3∗∗∗∗ % | 4.4 | – | –
CCOc1cc(C)c(C)cc1S(=O)(=O)N1CCN(c2ccccc2)CC1 [Compound 11] | 139.6 % of Control | 49.6∗∗∗∗ % | 29 | – | –
Cc1nc(N2CCN(C(=O)c3cccc(N(C)C)c3)CC2)cc(C(F)(F)F)n1 [Compound 2] | 101.9 % of Control | 68.0∗∗∗∗ % | 72.2 | – | –
Cc1cccc(C(=O)N2CCN(c3nc(C)cc(N4CCCCC4)n3)CC2)c1 [Compound 1] | 45.8∗∗∗∗ % of Control | 48.9∗∗∗∗ % | 58 | significantly increased RGS2 protein levels | significant toxicity
